Positions count from the first letter of the chain named. In names and notes the source's numbering stands. Where two headings read alike, the source gives them in different places. Marks after values point to notes of the source that are not given here.
Experiments:
TgPNPWT [1] = conditions: TgPNP WT, ref Chaudhary, et al. [18], cited from earlier work
P. falciparum [2] = conditions: purine-rich environment of cultured red blood cells; cited from earlier work
Pf Tyr160Phe PNP = target: T1, Pf Tyr160Phe PNP (Plasmodium falciparum, UniProt Q8T9Z7, Y160F); assay: Inhibition by immucillins (initial and slow onset); assay type: biochemical; conditions: initial
T1 construct: made in house; host or cells: Escherichia coli Top 10
T1 sequence (Q8T9Z7 whole entry Y160F): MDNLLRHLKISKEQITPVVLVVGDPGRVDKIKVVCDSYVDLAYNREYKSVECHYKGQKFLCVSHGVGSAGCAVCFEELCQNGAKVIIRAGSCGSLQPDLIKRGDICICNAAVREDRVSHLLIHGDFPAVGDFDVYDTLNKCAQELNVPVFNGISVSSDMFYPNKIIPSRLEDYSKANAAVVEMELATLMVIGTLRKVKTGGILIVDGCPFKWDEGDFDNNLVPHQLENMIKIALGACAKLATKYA
Protocol: (§1) Kinetic assays were completed in 50 mM KH2PO4 at pH 7.4 measuring phosphorylysis of inosine or MTI by PNP in a coupled reaction with 60 milliunits/ml xanthine oxidase to convert hypoxanthine to uric acid. […] Assays were performed with excess substrate in the presence of inhibitors. Inhibition studies measured both initial (Ki) and slow onset inhibition (Ki*) for inhibitors. The initial onset inhibition was analyzed by using the following equation: ν ο = (k cat×S)/(K m(1+I/Ki)+S), ν ο is the steady state rate, k cat catalytic rate, S is substrate concentration, Km is Michealis constant for inosine, I is inhibitor concentration, and Ki is the equilibrium dissociation constant.

Pf Val66Ile PNP = target: T2, Pf Val66Ile PNP (Plasmodium falciparum, UniProt Q8I3X4, V66I); assay: Inhibition by immucillins (initial and slow onset); assay type: biochemical; conditions: slow onset
T2 construct: made in house; host or cells: Escherichia coli Top 10
T2 sequence (Q8I3X4 whole entry V66I): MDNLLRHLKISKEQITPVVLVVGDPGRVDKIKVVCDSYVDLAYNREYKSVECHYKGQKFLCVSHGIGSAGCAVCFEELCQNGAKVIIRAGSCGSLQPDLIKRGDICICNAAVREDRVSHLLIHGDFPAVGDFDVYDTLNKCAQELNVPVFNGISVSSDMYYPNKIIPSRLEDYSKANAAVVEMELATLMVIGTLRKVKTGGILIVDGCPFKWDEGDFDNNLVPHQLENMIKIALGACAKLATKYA
Protocol: as §1

Pf V66I:V73I:Y160F PNP = target: T3, Pf V66I:V73I:Y160F PNP (Plasmodium falciparum, UniProt Q8T9Z7, V66I/V73I/Y160F); assay: Inhibition by immucillins (initial and slow onset); assay type: biochemical; conditions: initial
T3 construct: made in house; host or cells: Escherichia coli Top 10
T3 sequence (Q8T9Z7 whole entry V66I/V73I/Y160F): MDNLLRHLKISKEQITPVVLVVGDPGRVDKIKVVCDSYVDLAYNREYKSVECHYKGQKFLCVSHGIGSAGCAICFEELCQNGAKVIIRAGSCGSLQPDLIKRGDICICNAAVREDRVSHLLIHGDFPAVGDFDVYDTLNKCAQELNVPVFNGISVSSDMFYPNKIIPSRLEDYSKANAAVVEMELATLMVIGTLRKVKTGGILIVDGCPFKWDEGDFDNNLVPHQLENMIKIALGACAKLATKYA
Protocol: as §1

Pf V66I:V73I PNP = target: T4, Pf V66I:V73I PNP (Plasmodium falciparum, UniProt Q8T9Z7, V66I/V73I); assay: Inhibition by immucillins (initial and slow onset); assay type: biochemical; conditions: initial
T4 construct: made in house; host or cells: Escherichia coli Top 10
T4 sequence (Q8T9Z7 whole entry V66I/V73I): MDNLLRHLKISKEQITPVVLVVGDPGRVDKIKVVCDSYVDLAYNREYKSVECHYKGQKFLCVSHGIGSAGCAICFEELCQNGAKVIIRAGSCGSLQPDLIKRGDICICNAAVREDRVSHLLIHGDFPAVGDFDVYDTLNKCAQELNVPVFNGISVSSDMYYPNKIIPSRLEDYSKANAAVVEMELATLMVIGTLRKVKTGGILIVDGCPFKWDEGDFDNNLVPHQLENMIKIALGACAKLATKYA
Protocol: as §1

P. falciparum [3] = test system: P. falciparum; parameters: method as in PMID 22096507; conditions: Aotus model; cited from earlier work
TgPNPWT [4] = assay: Inhibition by immucillins (literature values); assay type: biochemical, Toxoplasma gondii; conditions: TgPNP versus PfPNP
[5] = test system: PfPNP versus mammalian PNP; parameters: method as in PMID 15576366; conditions: cited from earlier work
[6] = substrate: OC[C@H]1O[C@@H](n2cnc3c(O)ncnc32)[C@H](O)[C@@H]1O; assay: Substrate kinetics, xanthine oxidase coupled phosphorolysis assay; assay type: biochemical, Plasmodium falciparum; conditions: other: wild type PfPNP, substrate = label, 50 mM KH2PO4 pH 7.4, mean ± SD
Protocol: Kinetic assays were completed in 50 mM KH2PO4 at pH 7.4 measuring phosphorylysis of inosine or MTI by PNP in a coupled reaction with 60 milliunits/ml xanthine oxidase to convert hypoxanthine to uric acid. Formation of uric acid was measured at 293 nm wavelength (E293 = 12.9 mM^−1 cm^−1), [20]. In cases where activity for MTI was low, increased protein concentration (10 µg/ml) was used to check enzyme function. Assays were performed with excess substrate in the presence of inhibitors. Inhibition studies measured both initial (Ki) and slow onset inhibition (Ki*) for inhibitors. The initial onset inhibition was analyzed by using the following equation: ν ο = (k cat×S)/(K m(1+I/Ki)+S), ν ο is the steady state rate, k cat catalytic rate, S is substrate concentration, Km is Michealis constant for inosine, I is inhibitor concentration, and Ki is the equilibrium dissociation constant.

[7] = target: the molecule itself; assay: SEC; Superose 12 gel filtration, 0.1 ml of 1 mg/ml loaded, 20 mM HEPES, 50 mM KCl, 5 mM KH2PO4, 0.1 mM DTT, pH 7.4, 0.5 ml/min; self-association (hexamer)
[8] = target: the molecule itself; assay: crystal structure; V66I:V73I:Y160F PfPNP with ImmH and phosphate, 2.8 Å, space group I4(1)32, 2 molecules in the asymmetric unit; hexamer as a trimer of dimers

For O=c1[nH]cnc2c([C@@H]3N[C@H](CO)[C@@H](O)[C@H]3O)c[nH]c12 [ImmH, Immucillin-H], the Ki (TgPNPWT [1]; initial) is given as 450 nM, the Ki (TgPNPWT [1]; slow onset) is given as 2 nM and the “effect on P. falciparum” value (P. falciparum [2]) is given as “causes P. falciparum cell death by purine starvation”. The Ki (Pf Tyr160Phe PNP) was 0.93 nM, the “Ki*” value (Pf Val66Ile PNP) was “(-) ^c” and the Ki (Pf V66I:V73I:Y160F PNP) was 3.6 nM. For the same molecule, the Ki (Pf V66I:V73I PNP) was 270 nM.

In the case of Nc1nc2c(CN3C[C@H](CO)[C@@H](O)C3)c[nH]c2c(=O)[nH]1 [DADMe-Immucillin-G], the “efficacy against P. falciparum” value (P. falciparum [3]) is listed as “effective against P. falciparum in the Aotus model”.

In the case of CSC[C@H]1N[C@@H](c2c[nH]c3c(=O)[nH]cnc23)[C@H](O)[C@@H]1O [MT-ImmH, 5′-methylthioimmucillin-H], the “less effective for TgPNP than for PfPNP (Ki*)” value (TgPNPWT [4]) is given as “more than 160 fold”, the Ki (TgPNPWT [1]; initial) is given as 7100 nM and the Ki (TgPNPWT [1]; slow onset) is given as 290 nM. The “greater specificity for PfPNP versus mammalian PNP” value [5] was 100 fold.

B1: PfPNP (wild type) (Plasmodium falciparum 3D7) (protein)
chain: MDNLLRHLKISKEQITPVVLVVGDPGRVDKIKVVCDSYVDLAYNREYKSVECHYKGQKFLCVSHGVGSAGCAVCFEELCQNGAKVIIRAGSCGSLQPDLIKRGDICICNAAVREDRVSHLLIHGDFPAVGDFDVYDTLNKCAQELNVPVFNGISVSSDMYYPNKIIPSRLEDYSKANAAVVEMELATLMVIGTLRKVKTGGILIVDGCPFKWDEGDFDNNLVPHQLENMIKIALGACAKLATKYA
notes: made in house; host or cells: Escherichia coli Top 10
With B1 the Km [6] was 11 ± 5 µM, the kcat [6] was 1.7 ± 0.7 s⁻¹ and the kcat/Km [6] was 150000 M⁻¹ s⁻¹.

B2: Plasmodium falciparum purine nucleoside phosphorylase (PfPNP), wild type (enzyme, Plasmodium falciparum (3D7 strain))
chain: DNLLRHLKISKEQITPVVLVVGDPGRVDKIKVVCDSYVDLAYNREYKSVECHYKGQKFLCVSHGVGSAGCAVCFEELCQNGAKVIIRAGSCGSLQPDLIKRGDICICNAAVREDRVSHLLIHGDFPAVGDFDVYDTLNKCAQELNVPVFNGISVSSDMYYPNKIIPSRLEDYSKANAAVVEMELATLMVIGTLRKVKTGGILIVDGCPFKWDEGDFDNNLVPHQLENMIKIALGACAKLATKYA
notes: purine nucleoside phosphorylase of P. falciparum 3D7; also called PfPNP WT; wild-type PfPNP; source: E. coli Top 10, purified (Ni-NTA); not shown: c-Myc, C-terminal, kept; His6, C-terminal, kept
With B2 the “stoichiometry N” value [7] was 6.

B3: V66I:V73I:Y160F PfPNP (triple mutant Val66Ile:Val73Ile:Tyr160Phe) (enzyme)
chain: B2 chain with V65I, V72I, Y159F
notes: also called Pf V66I:V73I:Y160F; triple PfPNP mutant; source: E. coli Top 10, purified (Ni-NTA; Superdex 200 for larger scale); not shown: c-Myc, C-terminal, kept; His6, C-terminal, kept
With B3 the “stoichiometry N” value [8] was 6.
